What was measured:
[1] = molecular target: T1, Alpha-1A adrenergic receptor (Bos taurus, UniProt P18130); experiment: Binding affinity of compound towards Alpha-1 adrenergic receptor using [3H]prazosin 0.5 nM ligand in frontal cortex calf was determined; assay type: tissue-based
T1 sequence (P18130 whole entry): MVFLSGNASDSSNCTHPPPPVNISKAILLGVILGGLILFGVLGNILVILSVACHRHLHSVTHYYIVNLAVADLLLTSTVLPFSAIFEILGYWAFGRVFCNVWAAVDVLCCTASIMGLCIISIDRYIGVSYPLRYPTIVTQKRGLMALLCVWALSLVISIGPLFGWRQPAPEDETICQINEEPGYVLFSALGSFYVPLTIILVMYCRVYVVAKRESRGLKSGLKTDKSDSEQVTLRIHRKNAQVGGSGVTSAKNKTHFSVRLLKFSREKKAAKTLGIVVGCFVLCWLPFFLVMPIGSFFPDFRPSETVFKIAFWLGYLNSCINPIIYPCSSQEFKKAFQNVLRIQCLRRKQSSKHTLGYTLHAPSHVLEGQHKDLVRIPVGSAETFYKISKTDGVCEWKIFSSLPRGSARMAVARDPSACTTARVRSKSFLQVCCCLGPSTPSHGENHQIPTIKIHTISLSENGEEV

[2] = molecular target: T2, 5-hydroxytryptamine receptor 3B (Mus musculus, UniProt Q9JHJ5); experiment: Inhibition of [3H]BRL-43694 binding to 5-hydroxytryptamine 3 receptor in NG cells 108-15; assay type: cell-based
T2 sequence (Q9JHJ5 whole entry): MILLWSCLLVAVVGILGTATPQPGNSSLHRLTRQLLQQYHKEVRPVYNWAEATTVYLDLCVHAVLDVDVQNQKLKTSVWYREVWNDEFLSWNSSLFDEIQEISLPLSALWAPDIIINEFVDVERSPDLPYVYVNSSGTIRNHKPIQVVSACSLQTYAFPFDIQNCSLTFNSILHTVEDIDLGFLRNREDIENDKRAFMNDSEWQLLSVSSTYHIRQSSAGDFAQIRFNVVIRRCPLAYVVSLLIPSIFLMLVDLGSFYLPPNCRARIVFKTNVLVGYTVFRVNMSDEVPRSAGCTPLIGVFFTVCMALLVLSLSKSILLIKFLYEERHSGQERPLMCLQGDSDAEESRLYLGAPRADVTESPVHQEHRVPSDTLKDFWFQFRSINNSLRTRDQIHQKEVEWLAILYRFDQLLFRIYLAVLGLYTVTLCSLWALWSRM

D(2) dopamine receptor = D(2) dopamine receptor (Bos taurus, UniProt P20288); experiment: Inhibition of [3H]raclopride binding to Dopamine receptor D2 of bovine striatum; assay type: tissue-based
[3] = molecular target: T3, 5-hydroxytryptamine receptor 1A (Rattus norvegicus) (UniProt P19327); experiment: Inhibition of [3H]8-OH-DPAT binding to 5-hydroxytryptamine 1A receptor in rat hippocampal membranes at 10e-7 M; assay type: cell membranes; settings: Hippocampus, Membrane
T3 sequence (whole entry): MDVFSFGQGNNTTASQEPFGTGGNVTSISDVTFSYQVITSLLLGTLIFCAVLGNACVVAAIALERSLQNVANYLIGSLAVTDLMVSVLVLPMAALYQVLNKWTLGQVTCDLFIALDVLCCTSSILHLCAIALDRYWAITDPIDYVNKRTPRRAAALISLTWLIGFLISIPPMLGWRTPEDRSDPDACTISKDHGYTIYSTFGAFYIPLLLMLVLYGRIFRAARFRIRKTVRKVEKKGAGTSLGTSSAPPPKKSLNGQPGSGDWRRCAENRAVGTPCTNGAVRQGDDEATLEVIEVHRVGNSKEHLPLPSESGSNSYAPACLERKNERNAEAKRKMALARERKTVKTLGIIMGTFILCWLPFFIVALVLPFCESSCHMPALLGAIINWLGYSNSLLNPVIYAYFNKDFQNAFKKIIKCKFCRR

Bos taurus [4] = species on record: Bos taurus; experiment: Inhibition of [3H]prazosin binding to Alpha-1 adrenergic receptor of calf frontal cortex at 10e-7 M; assay type: tissue-based
D(1A) dopamine receptor [5] = molecular target: T4, D(1A) dopamine receptor (Bos taurus, UniProt Q95136); experiment: Inhibition of [3H]SCH-23390 binding to Dopamine receptor D1 of bovine striatum; assay type: tissue-based
[6] = molecular target: T5, 5-hydroxytryptamine receptor 1A (Rattus norvegicus, UniProt P19327); experiment: Inhibition of forskolin-activated adenylate cyclase (cAMP) activity at 5-hydroxytryptamine 1A receptor in rat hippocampus; assay type: functional, tissue-based
T5 sequence (P19327 whole entry): T3 sequence (whole entry)

[7] = molecular target: T5, 5-hydroxytryptamine receptor 1A; experiment: Displacement of [3H]8-OH-DPAT from 5-hydroxytryptamine 1A receptor of rat hippocampal membranes; assay type: cell membranes, Membrane
[8] = molecular target: T1, Alpha-1A adrenergic receptor; experiment: Inhibition of [3H]prazosin binding to Alpha-1 adrenergic receptor in bovine frontal cortex; assay type: tissue-based
Histamine H1 receptor = Histamine H1 receptor (Rattus norvegicus, UniProt P31390); experiment: Inhibition of [3H]pyrilamine binding to Histamine H1 receptor in rat cortex
[9] = molecular target: D(2) dopamine receptor (Bos taurus) (UniProt P20288); experiment: Inhibition of [3H]YM-09151-2 binding to Dopamine receptor D2 of bovine striatal preparations at 10e-7 M
Rattus norvegicus = experiment: in vivo behavioral test for Lower Lip Retraction(LLR) (msad=minimum significant active dose) in rats; assay type: functional
[10] = molecular target: Sigma non-opioid intracellular receptor 1 (Rattus norvegicus, UniProt Q9R0C9); experiment: Inhibition of [3H]DTG binding to sigma receptor in rat hippocampus; assay type: tissue-based
[11] = Inhibition of [3H]ketanserin binding to 5-hydroxytryptamine 2 receptor of bovine frontal cortex; assay type: tissue-based, Bos taurus
Bos taurus [12] = species on record: Bos taurus; experiment: Inhibition of [3H]ketanserin binding to 5-hydroxytryptamine 2 receptor of bovine frontal cortex at 10e-7 M; assay type: tissue-based
[13] = Displacement of [3H]-prazosin from Alpha-1 adrenergic receptor of bovine frontal cortex; assay type: tissue-based, Bos taurus
[14] = molecular target: 5-hydroxytryptamine receptor 1D (Sus scrofa, UniProt P79400); experiment: Binding affinity against 5-hydroxytryptamine 1D receptor using [3H]5-HT in pig striatum + frontalCortex; assay type: tissue-based
[15] = molecular target: Sigma non-opioid intracellular receptor 1 (Homo sapiens, UniProt Q99720); experiment: Binding affinity against sigma receptor
D(1A) dopamine receptor [16] = molecular target: D(1A) dopamine receptor (Mus musculus, UniProt Q61616); experiment: Binding affinity against Dopamine receptor D1
[17] = molecular target: 5-hydroxytryptamine receptor 2A (Bos taurus, UniProt Q75Z89); experiment: Binding affinity against 5-hydroxytryptamine 2 receptor
D(1A) dopamine receptor [18] = molecular target: T4, D(1A) dopamine receptor; experiment: Binding affinity of compound towards Dopamine receptor D1 using [3H]SCH-23390 (0.5 nM) ligand in striatum bovine was determined; assay type: tissue-based

Sigma non-opioid intracellular receptor 1 (Rattus norvegicus, UniProt Q9R0C9), sequence (Q9R0C9 whole entry): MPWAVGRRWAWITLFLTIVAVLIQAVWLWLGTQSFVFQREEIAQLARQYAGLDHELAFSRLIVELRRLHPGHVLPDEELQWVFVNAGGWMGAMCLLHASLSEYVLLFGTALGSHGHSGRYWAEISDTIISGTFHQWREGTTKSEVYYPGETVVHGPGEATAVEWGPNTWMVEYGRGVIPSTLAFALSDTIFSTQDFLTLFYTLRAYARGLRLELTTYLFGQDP
D(2) dopamine receptor, sequence (P20288 whole entry): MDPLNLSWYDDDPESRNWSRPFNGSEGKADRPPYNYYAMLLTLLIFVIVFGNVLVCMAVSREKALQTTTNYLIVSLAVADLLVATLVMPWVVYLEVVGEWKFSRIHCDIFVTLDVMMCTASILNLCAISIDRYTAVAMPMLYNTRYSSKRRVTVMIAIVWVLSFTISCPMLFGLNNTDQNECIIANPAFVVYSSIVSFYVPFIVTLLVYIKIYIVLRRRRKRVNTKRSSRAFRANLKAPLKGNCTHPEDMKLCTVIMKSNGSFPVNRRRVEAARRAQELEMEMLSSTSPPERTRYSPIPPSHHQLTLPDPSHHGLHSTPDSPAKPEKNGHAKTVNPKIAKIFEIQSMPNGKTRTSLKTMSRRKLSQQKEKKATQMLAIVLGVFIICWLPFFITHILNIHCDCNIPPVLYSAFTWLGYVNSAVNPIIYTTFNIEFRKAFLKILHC
D(2) dopamine receptor (Bos taurus), sequence (P20288 whole entry): as above
Histamine H1 receptor, sequence (P31390 whole entry): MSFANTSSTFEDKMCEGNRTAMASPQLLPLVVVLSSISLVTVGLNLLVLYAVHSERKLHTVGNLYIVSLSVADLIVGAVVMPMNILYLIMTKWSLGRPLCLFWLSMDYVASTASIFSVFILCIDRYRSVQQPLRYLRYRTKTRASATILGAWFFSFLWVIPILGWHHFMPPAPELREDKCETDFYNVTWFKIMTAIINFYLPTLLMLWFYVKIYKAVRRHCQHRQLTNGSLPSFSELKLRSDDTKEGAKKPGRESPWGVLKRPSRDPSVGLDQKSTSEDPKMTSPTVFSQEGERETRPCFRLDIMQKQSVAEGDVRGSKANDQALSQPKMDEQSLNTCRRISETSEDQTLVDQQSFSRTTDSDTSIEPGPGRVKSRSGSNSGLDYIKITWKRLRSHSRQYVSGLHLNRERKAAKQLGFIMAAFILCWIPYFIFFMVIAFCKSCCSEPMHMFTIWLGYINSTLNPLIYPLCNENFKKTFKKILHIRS
T4 sequence (Q95136 whole entry): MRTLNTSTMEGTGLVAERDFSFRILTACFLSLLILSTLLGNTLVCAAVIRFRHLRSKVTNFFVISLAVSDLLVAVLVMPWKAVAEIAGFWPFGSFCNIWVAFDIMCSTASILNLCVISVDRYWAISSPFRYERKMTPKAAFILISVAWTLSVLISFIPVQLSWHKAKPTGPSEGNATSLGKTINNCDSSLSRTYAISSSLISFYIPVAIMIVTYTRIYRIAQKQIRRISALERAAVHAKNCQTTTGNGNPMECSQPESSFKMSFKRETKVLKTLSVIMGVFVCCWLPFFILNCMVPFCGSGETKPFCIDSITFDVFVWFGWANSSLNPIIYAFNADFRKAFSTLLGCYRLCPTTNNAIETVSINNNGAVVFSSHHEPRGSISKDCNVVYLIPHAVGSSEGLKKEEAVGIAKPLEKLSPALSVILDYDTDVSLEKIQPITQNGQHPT
5-hydroxytryptamine receptor 1D, sequence (P79400 whole entry): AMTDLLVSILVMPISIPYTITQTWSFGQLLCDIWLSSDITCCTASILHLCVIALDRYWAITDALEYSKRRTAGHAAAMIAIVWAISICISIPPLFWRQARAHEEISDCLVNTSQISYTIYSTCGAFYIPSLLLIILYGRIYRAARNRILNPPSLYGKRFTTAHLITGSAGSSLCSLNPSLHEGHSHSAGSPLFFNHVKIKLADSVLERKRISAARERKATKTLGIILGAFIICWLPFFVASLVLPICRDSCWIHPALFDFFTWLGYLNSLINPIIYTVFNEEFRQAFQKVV
D(1A) dopamine receptor (Mus musculus, UniProt Q61616), sequence (Q61616 whole entry): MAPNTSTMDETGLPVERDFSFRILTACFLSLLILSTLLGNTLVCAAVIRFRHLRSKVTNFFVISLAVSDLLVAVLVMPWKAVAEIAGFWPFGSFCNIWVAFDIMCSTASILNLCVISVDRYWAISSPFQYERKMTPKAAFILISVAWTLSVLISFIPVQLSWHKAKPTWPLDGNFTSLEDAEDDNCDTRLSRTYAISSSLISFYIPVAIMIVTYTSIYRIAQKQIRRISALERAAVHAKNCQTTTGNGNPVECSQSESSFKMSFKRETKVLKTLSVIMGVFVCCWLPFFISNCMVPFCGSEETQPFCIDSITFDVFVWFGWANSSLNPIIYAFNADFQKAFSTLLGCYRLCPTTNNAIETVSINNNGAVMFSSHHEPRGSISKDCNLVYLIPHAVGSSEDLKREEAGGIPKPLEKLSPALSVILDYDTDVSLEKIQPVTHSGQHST
5-hydroxytryptamine receptor 2A, sequence (Q75Z89 whole entry): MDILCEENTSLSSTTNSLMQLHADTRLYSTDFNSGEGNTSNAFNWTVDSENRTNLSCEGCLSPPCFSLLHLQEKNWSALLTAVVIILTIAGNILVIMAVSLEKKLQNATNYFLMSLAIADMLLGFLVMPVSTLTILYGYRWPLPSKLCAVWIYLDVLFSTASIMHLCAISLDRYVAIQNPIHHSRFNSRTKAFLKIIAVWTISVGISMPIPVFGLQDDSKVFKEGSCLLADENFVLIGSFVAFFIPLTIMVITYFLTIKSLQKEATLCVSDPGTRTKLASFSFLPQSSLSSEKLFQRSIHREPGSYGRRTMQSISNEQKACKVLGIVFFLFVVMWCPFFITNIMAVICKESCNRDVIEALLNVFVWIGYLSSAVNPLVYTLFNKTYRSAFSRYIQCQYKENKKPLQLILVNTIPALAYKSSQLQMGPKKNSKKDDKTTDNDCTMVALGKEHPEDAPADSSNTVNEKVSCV
Sigma non-opioid intracellular receptor 1 (Homo sapiens, UniProt Q99720), sequence (Q99720 whole entry): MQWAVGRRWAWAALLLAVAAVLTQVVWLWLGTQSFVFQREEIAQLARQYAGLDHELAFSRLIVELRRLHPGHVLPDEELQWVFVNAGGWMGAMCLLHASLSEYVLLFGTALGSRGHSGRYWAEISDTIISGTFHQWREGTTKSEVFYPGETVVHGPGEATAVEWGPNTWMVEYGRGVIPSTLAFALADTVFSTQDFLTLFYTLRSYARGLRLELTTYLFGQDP

Compound	Ki (D(2) dopamine receptor) [nM]	inhibition [3] [%]	inhibition (Bos taurus [4]) [%]	Ki (D(1A) dopamine receptor [5]) [nM]	IC50 [6] [nM]	Ki [7] [nM]	inhibition [9] [%]	Ki [10] [nM]	inhibition (Bos taurus [12]) [%]	Ki [13] [nM]	other results
COc1cccc(OC)c1OCCNCC1COc2ccccc2O1 (stereo not drawn)	–	–	–	–	–	–	–	–	–	–	Ki [1]: 0.6 nM
O=C(CCCN1CCN(C2CCCc3ccccc32)CC1)c1ccc(F)cc1 (stereo not drawn)	110	37	1	1000	210	17	74	30	20	–	Ki [2]: 3160 nM; Ki [8]: 18 nM; Ki (Histamine H1 receptor): 42 nM; LLR msad (Rattus norvegicus): >64 mg/kg; Ki ([11]; read-out: Ki): 66 nM
COc1ccc(C(=O)NCCN2CCN(C3CCCCc4ccccc43)CC2)cc1 (stereo not drawn)	–	11	0	–	–	–	60	–	10	–	–
COc1ccc(C(=O)NCCN2CCN(C3CCCc4ccccc43)CC2)cc1 (stereo not drawn)	–	63	0	–	–	–	7	–	28	–	–
COc1ccc(C(=O)NCCN2CCN(C3CCc4ccccc43)CC2)cc1 (stereo not drawn)	–	45	6	–	–	–	11	–	17	–	–
Cc1ccc(C(=O)NCCN2CCN(C3CCCCc4ccccc43)CC2)cc1 (stereo not drawn)	–	0	0	–	–	–	47	–	14	–	–
Cc1ccc(C(=O)NCCN2CCN(C3CCCc4ccccc43)CC2)cc1 (stereo not drawn)	–	42	0	–	–	–	5	–	6	–	–
O=C(NCCCN1CCN(C2CCCc3ccccc32)CC1)c1ccc(F)cc1 (stereo not drawn)	–	68	6	–	–	–	0	–	19	–	–
O=C(NCCCN1CCN(C2CCCc3ccccc32)CC1)c1ccccc1 (stereo not drawn)	–	39	11	–	–	–	2	–	17	–	–
O=C(NCCN1CCN(C2CCCCc3ccccc32)CC1)c1ccc(F)cc1 (stereo not drawn)	–	22	0	–	–	–	31	–	23	–	–
O=C(NCCN1CCN(C2CCCCc3ccccc32)CC1)c1ccccc1 (stereo not drawn)	–	51	0	–	–	–	7	–	37	–	–
O=C(NCCN1CCN(C2CCc3ccccc32)CC1)c1ccc(F)cc1 (stereo not drawn)	–	69	36	–	–	–	0	–	0	–	–
O=C(NCCN1CCN(C2CCCc3ccccc32)CC1)c1ccc(F)cc1 (single isomer, unassigned; (+))	740	–	–	–	1450	50	–	190	–	710	Ki ([11]; read-out: Ki): 1300 nM
O=C(NCCN1CCN(C2CCCc3ccccc32)CC1)c1ccccc1 (single isomer, unassigned; (-))	130	–	–	–	14	0.4	–	–	–	190	Ki (Histamine H1 receptor): 70 nM; LLR msad (Rattus norvegicus): 2.75 mg/kg
O=C(NCCN1CCN(C2CCCc3ccccc32)CC1)c1ccc(F)cc1 (single isomer, unassigned; (-))	70	–	–	3090	15	–	–	130	–	124	Ki (Histamine H1 receptor): 58 nM; LLR msad (Rattus norvegicus): 2.25 mg/kg; Ki ([11]; read-out: Ki): 1380 nM
O=C(NCCN1CCN(C2CCCc3ccccc32)CC1)c1ccccc1 (stereo in doubt; 32) [listing 1 of 2 here]	110	–	–	21900	36	1.1	–	90	–	150	Ki [2]: 3470 nM; Ki (Histamine H1 receptor): 30 nM; Ki ([11]; read-out: Ki): 710 nM; Ki [14]: 6920 nM
O=C(NCCN1CCN(C2CCCc3ccccc32)CC1)c1ccccc1 (stereo in doubt; 32) [listing 2 of 2 here]	–	93	4	–	–	–	4	–	0	–	–
O=C(NCCN1CCN(C2CCCc3ccccc32)CC1)c1ccc(F)cc1 (stereo in doubt; 33) [listing 1 of 2 here]	70	–	–	12000	52	1.5	–	280	–	80	Ki [2]: 3470 nM; Ki (Histamine H1 receptor): 140 nM; Ki ([11]; read-out: Ki): 1180 nM; Ki [14]: 9770 nM
O=C(NCCN1CCN(C2CCCc3ccccc32)CC1)c1ccc(F)cc1 (stereo in doubt; 33) [listing 2 of 2 here]	–	88	22	–	–	–	3	–	17	–	–
O=C(NCCN1CCN(C2CCCc3ccccc32)CC1)c1ccc(Cl)cc1 (stereo in doubt; 34) [listing 1 of 2 here]	120	–	–	–	75	10	–	–	–	410	Ki [11]: 1000 nM
O=C(NCCN1CCN(C2CCCc3ccccc32)CC1)c1ccc(Cl)cc1 (stereo in doubt; 34) [listing 2 of 2 here]	–	86	23	–	–	–	29	–	6	–	–
O=C(NCCN1CCN(C2CCCc3ccccc32)CC1)c1ccc(Cl)cc1 (stereo in doubt; (+)-34)	700	–	–	19700	1500	210	–	200	–	8380	Ki [11]: 3800 nM
O=C(NCCN1CCN(C2CCCc3ccccc32)CC1)c1ccc(Cl)cc1 (stereo in doubt; (-)-34)	480	–	–	27000	38	4	–	1250	–	450	LLR msad (Rattus norvegicus): 2.5 mg/kg; Ki [11]: 2700 nM
CCCN(CCC)C1CCc2cccc(O)c2C1 (stereo not drawn) [8-OH-DPAT]	2380	–	–	87300	–	–	–	5240	–	9460	Ki [15]: > 2430 nM; Ki (D(1A) dopamine receptor [16]): > 1000 nM; LLR msad (Rattus norvegicus): 2.2 mg/kg; Ki ([11]; read-out: Ki): 1100 nM; Ki [17]: > 1000 nM
O=C1CC2(CCCC2)CC(=O)N1CCCCN1CCN(c2ncccn2)CC1 [BUSPIRONE]	44	–	–	6100	–	–	–	–	–	1320	Ki (D(1A) dopamine receptor [16]): > 1000 nM; Ki ([11]; read-out: Ki): 1250 nM; Ki [17]: 178 nM
OCCN1CCN(CC/C=C2\c3ccccc3Sc3ccc(C(F)(F)F)cc32)CC1 [E-FLUPENTIXOL]	–	–	–	–	–	–	–	–	–	–	Ki (D(1A) dopamine receptor [18]): 18 nM
